Laboratory results taken from BindingDB's records for doi:10.3109/14756366.2011.643302 (Centre de Recherche de Gif, 2013).

Columns and labels:
[1] = biological target: Protein farnesyltransferase subunit beta/geranylgeranyltransferase type-1 subunit alpha (Homo sapiens, UniProt P49354+P49356); assay: Human FTase Assay
Procedure: Assays were realized on 96-well plates, as described for yeast FTase but octyl-D-glucopyranoside (0.18%) was used instead of CHAPS and the solution contains 5 μLof partially purified human FTase (1.5 mg/mL)7 in 1 mL peptide solution.

[2] = biological target: T1, Protein farnesyltransferase subunit beta/geranylgeranyltransferase type-1 subunit alpha (Saccharomyces cerevisiae (strain ATCC 204508 / S288c), UniProt P22007+P29703); assay: Yeast FTase Assay; settings: pH 7.5
T1 sequence (P22007 whole entry): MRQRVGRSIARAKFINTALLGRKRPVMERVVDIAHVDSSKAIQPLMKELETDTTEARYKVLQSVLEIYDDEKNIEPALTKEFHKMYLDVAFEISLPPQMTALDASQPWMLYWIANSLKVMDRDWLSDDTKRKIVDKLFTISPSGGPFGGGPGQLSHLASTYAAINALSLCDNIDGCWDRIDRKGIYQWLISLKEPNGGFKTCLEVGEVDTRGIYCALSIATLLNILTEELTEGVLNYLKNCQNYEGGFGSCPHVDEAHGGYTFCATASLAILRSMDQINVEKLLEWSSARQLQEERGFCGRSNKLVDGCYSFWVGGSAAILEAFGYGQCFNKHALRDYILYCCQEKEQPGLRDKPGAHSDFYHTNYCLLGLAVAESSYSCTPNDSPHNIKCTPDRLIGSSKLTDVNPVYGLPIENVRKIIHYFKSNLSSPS
T1 sequence (P29703 whole entry): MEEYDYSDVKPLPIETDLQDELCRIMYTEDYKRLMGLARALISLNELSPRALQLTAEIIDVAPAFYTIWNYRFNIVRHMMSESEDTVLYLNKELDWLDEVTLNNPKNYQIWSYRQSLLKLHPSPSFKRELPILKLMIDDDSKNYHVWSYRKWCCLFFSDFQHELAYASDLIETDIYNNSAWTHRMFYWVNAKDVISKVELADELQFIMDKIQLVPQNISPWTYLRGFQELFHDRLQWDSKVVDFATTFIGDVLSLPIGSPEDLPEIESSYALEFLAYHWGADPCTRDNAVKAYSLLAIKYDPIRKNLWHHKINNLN
Procedure: Assays were realized on 96-well plates, prepared with Biomek NKMC and Biomek 3000 from Beckman Coulter and read on Wallac Victor fluorimeter from Perkin-Elmer. Per well, 20 μL of farnesyl pyrophosphate (10 μM) was added to 180 μL of a solution containing 2 μL of varied concentrations of potential inhibitors (dissolved in DMSO) and 178 μL of a solution composed by 0.1 mL of partially purified recombinant yeast FTase (2.2 mg/ mL) and 7.0 mL of dansyl-GCVLS peptide (in the following buffer: 5.8 mM DTT, 6 mM MgCl2, 12 μM ZnCl2 and 0.09% (w/v) CHAPS, 53 mM Tris/HCl, pH 7.5). Then the fluorescence development was recorded for 15 min(0.7 second per well, 20 repeats) at 30°C with an excitation filter at 340 nm and an emission filter at 486 nm. Each measurement was realized twice as duplicate ortriplicate.

[3] = biological target: T2, Protein farnesyltransferase alpha subunit/subunit beta (Trypanosoma brucei brucei, UniProt Q9NC76+Q9NC77); assay: T. brucei FTase Assay
T2 sequence (Q9NC77 whole entry): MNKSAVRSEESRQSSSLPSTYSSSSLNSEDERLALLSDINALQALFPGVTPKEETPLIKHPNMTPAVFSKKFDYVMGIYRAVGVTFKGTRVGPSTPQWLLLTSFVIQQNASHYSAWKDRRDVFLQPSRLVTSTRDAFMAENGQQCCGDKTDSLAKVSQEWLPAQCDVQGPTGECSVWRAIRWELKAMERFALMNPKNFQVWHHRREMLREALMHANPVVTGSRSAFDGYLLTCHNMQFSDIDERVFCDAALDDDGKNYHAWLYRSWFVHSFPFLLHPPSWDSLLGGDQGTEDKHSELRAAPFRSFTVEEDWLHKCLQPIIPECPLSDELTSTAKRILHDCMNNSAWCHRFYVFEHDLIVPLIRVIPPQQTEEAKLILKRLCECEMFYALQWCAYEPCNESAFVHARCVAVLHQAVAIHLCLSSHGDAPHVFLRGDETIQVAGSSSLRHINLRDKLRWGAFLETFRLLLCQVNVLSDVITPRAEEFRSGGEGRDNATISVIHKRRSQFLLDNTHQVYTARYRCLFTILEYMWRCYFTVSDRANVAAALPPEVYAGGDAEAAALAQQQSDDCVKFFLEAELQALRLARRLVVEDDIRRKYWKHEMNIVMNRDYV
T2 sequence (Q9NC76 whole entry): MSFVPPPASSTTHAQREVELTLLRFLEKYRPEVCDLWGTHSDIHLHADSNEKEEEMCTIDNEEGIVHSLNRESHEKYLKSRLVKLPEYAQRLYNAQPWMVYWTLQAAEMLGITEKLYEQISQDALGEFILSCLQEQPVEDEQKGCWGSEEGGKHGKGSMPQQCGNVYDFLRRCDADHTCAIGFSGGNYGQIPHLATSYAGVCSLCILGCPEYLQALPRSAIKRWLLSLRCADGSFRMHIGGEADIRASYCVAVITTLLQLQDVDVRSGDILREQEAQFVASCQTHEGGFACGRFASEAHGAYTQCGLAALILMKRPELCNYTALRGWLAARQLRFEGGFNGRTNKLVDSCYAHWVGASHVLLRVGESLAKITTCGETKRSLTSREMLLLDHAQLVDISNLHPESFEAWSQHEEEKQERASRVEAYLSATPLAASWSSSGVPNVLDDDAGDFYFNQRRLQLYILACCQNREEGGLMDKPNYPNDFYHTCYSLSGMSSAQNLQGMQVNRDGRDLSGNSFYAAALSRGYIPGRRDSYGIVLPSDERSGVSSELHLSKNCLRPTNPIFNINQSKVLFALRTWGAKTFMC
Procedure: Assays were realized on 96-well plates, as described for human FTase with the dansylated peptide Dansyl-GCAIM and the solution contains 15 μL of partially purified Tb-FTase (1.0 mg/mL) in 1 mL peptide solution.

| SMILES | IC50 [1] [µM] | IC50 [2] [µM] | IC50 [3] [µM] |
| --- | --- | --- | --- |
| COC(=O)c1cccc(-c2c(C(=O)O)sc(SC(C)C)c2C#N)c1 [3-(3-(Methoxycarbonyl)phenyl)-4-cyano-5-(isopropylthio)thiophene-2-carboxylic acid (1q)] | 7 | 0.62 | 6.9 |
| CC(C)Sc1sc(C(=O)O)c(-c2ccccc2Cl)c1C#N [3-(2-Chlorophenyl)-4-cyano-5-(isopropylthio)thiophene-2-carboxylic acid (1c)] | > 50 | 1.4 | 37 |
| COc1ccccc1-c1c(C(=O)O)sc(SC(C)C)c1C#N [3-(2-Methoxyphenyl)-4-cyano-5-(isopropylthio)thiophene-2-carboxylic acid (1l)] | > 50 | 9.7 | 37 |
| CSCC[C@H](NC(=O)c1ccc(NC[C@@H](N)CS)cc1-c1ccccc1)C(=O)O [2-{[5-((R)-2-Amino-3-mercapto-propylamino)-biphenyl-2-carbonyl]-amino}-4-methylsulfanyl-butyric acid] |  | 0.00078 | 0.01 |
| Cc1cccc(-c2c(C(=O)O)sc(SC(C)C)c2C#N)c1 [3-(3-Tolyl)-4-cyano-5-(isopropylthio)thiophene-2-carboxylic acid (1u)] | 16 | 1.4 | 34 |
| CC(C)Sc1sc(C(=O)O)c(-c2ccc3ccccc3c2)c1C#N [3-(2-Naphthyl)-4-cyano-5-(isopropylthio)thiophene-2-carboxylic acid (1y)] | 4.8 | 0.32 | 9.7 |
| CC(C)Sc1sc(C(=O)O)c(-c2cccc(F)c2)c1C#N [3-(3-Fluorophenyl)-4-cyano-5-(isopropylthio)thiophene-2-carboxylic acid (1e)] | 23 | 0.46 | 32 |
| CC(C)Sc1sc(C(=O)O)c(-c2cccc(C(F)(F)F)c2)c1C#N [3-(3-(Trifluoromethyl)phenyl)-4-cyano-5-(isopropylthio)thiophene-2-carboxylic acid (1h)] | 34 | 1.6 | 19 |
| CC(C)Sc1sc(C(=O)O)c(-c2ccc(Cl)cc2)c1C#N [3-(4-Chlorophenyl)-4-cyano-5-(isopropylthio)thiophene-2-carboxylic acid (1a)] |  | 0.11 | 10.6 |
| COc1ccc(-c2c(C(=O)O)sc(SC(C)C)c2C#N)cc1 [3-(4-Methoxyphenyl)-4-cyano-5-(isopropylthio)thiophene-2-carboxylic acid (1j)] |  | 0.25 | 8.6 |
| CC(C)Sc1sc(C(=O)O)c(-c2ccc(C(F)(F)F)cc2)c1C#N [3-(4-(Trifluoromethyl)phenyl)-4-cyano-5-(isopropylthio)thiophene-2-carboxylic acid (1g)] |  | 0.58 |  |
| CC(C)Sc1sc(C(=O)O)c(-c2cccc3ccccc23)c1C#N [3-(1-Naphthyl)-4-cyano-5-(isopropylthio)thiophene-2-carboxylic acid (1x)] | 32 | 1.1 | 10.5 |
| Cc1ccccc1-c1c(C(=O)O)sc(SC(C)C)c1C#N [3-(2-Tolyl)-4-cyano-5-(isopropylthio)thiophene-2-carboxylic acid (1v)] | > 50 | 3.1 | > 50 |
| CC(C)Sc1sc(C(=O)O)c(-c2cccc(Cl)c2)c1C#N [3-(3-Chlorophenyl)-4-cyano-5-(isopropylthio)thiophene-2-carboxylic acid (1b)] | 48 | 1.3 | 14.5 |
| CC(C)Sc1sc(C(=O)O)c(-c2ccc(F)cc2)c1C#N [3-(4-Fluorophenyl)-4-cyano-5-(isopropylthio)thiophene-2-carboxylic acid (1d)] | 20 | 0.27 | 29 |
| COc1cccc(-c2c(C(=O)O)sc(SC(C)C)c2C#N)c1 [3-(3-Methoxyphenyl)-4-cyano-5-(isopropylthio)thiophene-2-carboxylic acid (1k)] |  | 1.6 | 18 |
| CC(C)Sc1sc(C(=O)O)c(-c2cccc3oc4ccccc4c23)c1C#N [3-(1-Dibenzofuranyl)-4-cyano-5-(isopropylthio)thiophene-2-carboxylic acid (1gg)] | 15 | 1 | 3.3 |
| COC(=O)c1ccc(-c2c(C(=O)O)sc(SC(C)C)c2C#N)cc1 [3-(4-(Methoxycarbonyl)phenyl)-4-cyano-5-(isopropylthio)thiophene-2-carboxylic acid (1p)] | 12.8 | 0.085 | 14 |
| CC(C)Sc1sc(C(=O)O)c(-c2cccc(-c3ccccc3)c2)c1C#N [3-(3-Biphenyl)-4-cyano-5-(isopropylthio)thiophene-2-carboxylic acid (1aa)] | 3.3 | 0.64 | 5.4 |
| CC(C)Sc1sc(C(=O)O)c(-c2ccccc2F)c1C#N [3-(2-Fluorophenyl)-4-cyano-5-(isopropylthio)thiophene-2-carboxylic acid (1f)] | > 50 | 1.3 | 46 |
| CC(C)Sc1sc(C(=O)O)c(-c2ccccc2)c1C#N [3-Phenyl-4-cyano-5-(isopropylthio)thiophene-2-carboxylic acid (1s)] | 34 | 0.61 | 42 |
| CC(C)Sc1sc(C(=O)O)c(-c2ccc(-c3ccccc3)cc2)c1C#N [3-(4-Biphenyl)-4-cyano-5-(isopropylthio)thiophene-2-carboxylic acid (1z)] | 5.5 | 2.7 | 32 |
| Cc1ccc(-c2c(C(=O)O)sc(SC(C)C)c2C#N)cc1 [3-(4-Tolyl)-4-cyano-5-(isopropylthio)thiophene-2-carboxylic acid (1t)] | 21 | 0.19 | 17 |
